Tests used:
[1] = test system: SJ-39 retinoblastoma cells; assay: Efficacy in human orthotopic xenograft mouse model of retinoblastoma (event-free survival); format: in vivo
Method: Preclinical testing was carried out in human orthotopic xenograft mice using the methods previously described ([10], [11]). SJ-39 retinoblastoma cells were injected into the vitreous of 30 immunocompromised mice (J:NU, The Jackson Laboratory (Bar Harbor, ME, USA)): 10 were untreated and 20 received subconjunctival injections of R406 in solution formulation (R406^oc) and systemic topotecan (TPT^syst) combination therapy administered over a 5-day course every third week as follows: 10 μL R406 per eye at a concentration of […] (8–9 nanomoles/eye) on day 1, and TPT^syst (0.7 mg/kg per dose, i.p.) on days 1 to 5 (see Fig. 1a). Mice were scheduled to receive six courses of therapy (18 weeks total). Before each course of therapy, mice were examined and intraocular pressure (IOP) was read as previously described ([10], [11]). If intraocular pressure was elevated above normal (IOP > 20) or eye rupture was observed, mice were taken off study and time to event was recorded. At the completion of the study event-free survival (EFS) was analyzed for the R406^oc/TPT^syst treated and untreated groups.
Since R406 is the SYK inhibitor farthest along in clinical development (Phase 3), and therefore the most likely compound to be tested clinically against retinoblastoma, we decided to focus upon its evaluation. In order to test the efficacy of R406 in vivo, we developed a solution formulation using FDA approved adjuvants for ophthalmic applications ([11]). The maximum concentration of R406 in solution was approximately 900 μM and R406 was chemically stable in formulation for 48 h at room temperature (Table S3 and Fig. S2). Next, we performed in vivo efficacy studies using the solution formulation of R406 in combination with systemic topotecan (standard for our preclinical evaluation of new retinoblastoma agents ([11]) following a clinically relevant dose and schedule as was previously done for nutlin-3a and BAY-61-3606 ([6], [11]). SJ-39 retinoblastoma cells were injected into the vitreous of 30 immunocompromised mice and animals were randomized into two treatment groups: 20 received subconjunctival injections of R406 in solution formulation (R406^oc) and systemic topotecan (TPT^syst) combination therapy administered over a 5-day course every third week (see Fig. 1a) and 10 were untreated. Animals were scheduled to receive 6 courses of treatment (18 weeks total), but no animal completed the entire 6 courses. All animals were taken off study by 63 days due to elevated intraocular pressure (IOP > 20) or eye rupture. Event free survival (EFS) was analyzed for the two groups (Fig. 1b). […]

[2] = Concentration and stability of R406 in castor oil and castor oil emulsion; format: physicochemical
Method: For oral delivery of R788, the target dose of 25 mg/kg R788 was administered by oral gavage as a 4 mM solution in 0.01 N citrate buffer, pH 6 ([9]). For subconjunctival administration, R788 was prepared at a concentration of 4 mM in 2% PEG-800 and filtered through a 0.22 μm filter prior to use (see Table S1). R788 was also administered subconjunctivally as a suspension at a concentration of 25 mM in 10% 2-hydroxylpropyl-β-cyclodextrin (HPβCD, Sigma-Aldrich). For subconjunctival administration, R406 phenylsulfonate salt was administered at a concentration of 800–900 μM as a cosolvent solution in a formulation of 5% Cremaphor-eL, 0.5% ethanol, 0.2% Tween 80 and 94.3% PBS, filtered through a 0.22 μm filter prior to use (see Table S2). R406 phenylsulfonate salt was also administered subconjunctivally at a dose of 31.4 mM solution in DMSO. R406 free base was administered subconjunctivally at a concentration of 6.5 mM as a 25% castor oil (Sigma-Aldrich) emulsion. This emulsion was prepared by mixing castor oil: ethanol (1:1) solution of R406 (approx. 35 mM), in vacuo evaporation of the ethanol, and centrifugation to remove any excess R406, then emulsifying the R406 oil phase in an aqueous phase comprised of Cremaphor-eL, Tween 80 and PBS (final composition of the emulsion: 25% castor oil, 5% Cremaphor-eL, 0.2% Tween-80, 69.8% PBS) by probe sonication. For intravitreal injection, R788 solution was prepared by filtering a 0.12 mM (120 μM) solution of R788 in saline through a 0.22 μm filter. […] For topical delivery, 25–30 mM suspensions were prepared in 5% HPβCD. R406 or R788 concentration in all formulations was determined by UPLC prior to study (in cases where formulation was filtered before administration, concentration was determined post-filtering) Table I.
An emulsion of 30% castor oil, 5% Cremaphor, 4% T80, 61% PBS was prepared and samples were stored at 4 °C and room temperature (25 °C). Samples were diluted and OD600 for each dilution was measured in triplicate on the day of emulsion preparation (storage time = 0 days) and after 6 days of storage. OD600 was measured using a black Costar clear bottom plate and a Spectramax plate reader.
For storage stability in emulsion, n =4.

[3] = Concentration and stability of R406 in cosolvent solution formulation; format: physicochemical
Method: R406 stability in cosolvent solution: Precipitation of R406 in the cosolvent solution causes a drop in concentration after 48 hours of storage at room temperature (Table S3), but there is no loss of purity indicating R406 is chemically stable in the co-solvent solution for 48 hours at room temperature (Figure S4).

[4] = Storage Time = 24 hr, room temperature
[5] = Storage Time = 48 hr, room temperature
[6] = Storage Time = 72 hr, room temperature

Question: Which results are given for COc1cc(Nc2ncc(F)c(Nc3ccc4c(n3)NC(=O)C(C)(C)O4)n2)cc(OC)c1OC [R406]?
Answer: proportion of event free survivals at 21 days ([1]; subconjunctival R406 solution 8–9 nmol/eye day 1 + systemic topotecan 0.7 mg/kg i.p. days 1-5, every third week, n=20, untreated 50%): 90%; time by which all animals were taken off study (IOP > 20 or eye rupture) ([1]; subconjunctival R406 solution + systemic topotecan): ≤ 63 days; proportion of event free survivals at 42 days ([1]; subconjunctival R406 solution + systemic topotecan, untreated 0%): 30%; Median event free survival ([1]; subconjunctival R406 solution + systemic topotecan, untreated 32.5 days, log-rank p = 0.005): 42 days; Average Concentration in castor oil emulsion ([2]; Initial Concentration, room temperature, n=4): 12.39 ± 1.21 mM; time emulsion was stable ([2]; R406 castor oil emulsion, room temperature): 48 h; Average Concentration in castor oil emulsion [2, 4]: 11.03 ± 2.09 mM; Percentage of Initial Concentration in castor oil emulsion [2, 4]: 89.0%; Average Concentration in castor oil emulsion [2, 5]: 9.78 ± 3.13 mM; Percentage of Initial Concentration in castor oil emulsion [2, 5]: 78.9%; Average Concentration in castor oil emulsion [2, 6]: 12.45 ± 1.43 mM; Percentage of Initial Concentration in castor oil emulsion [2, 6]: 100.5%; concentration of R406 achieved in emulsion ([2]; castor oil emulsion): 6500 µM; time stable in castor oil emulsion ([2]; room temperature): at least 72 hours; Average Concentration in cosolvent formulation ([3]; Initial Concentration, room temperature): 743.6 µM; Average Concentration in cosolvent formulation [3, 5]: 252.5 µM; Percentage of Initial Concentration in cosolvent formulation [3, 5]: 34%; maximum concentration of R406 in solution formulation ([3]; cosolvent solution formulation with FDA approved ophthalmic adjuvants): approximately 900 μM; time chemically stable in cosolvent solution formulation (no loss of purity) ([3]; room temperature): 48 h
